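Assay format: 96-well plates, 48-hour exposure. Here, GI50 denotes the concentration required for 50% inhibition of growth. TGI denotes the concentration required for complete inhibition of growth.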 Where a SMILES comes first, the peptide text is derived from it. [ ]: non-standard residue; d: D form. 2Nal = N[CH](Cc1ccc2ccccc2c1)C(=O)O
Legend:
Assay in all cases: NCI-60 cell line screen, 48 h
MDA-N = system: MDA-N
DLD-1 colon = system: DLD-1 colon
KM20L2 colon = system: KM20L2 colon
LXFL 529 NSCLC = system: LXFL 529 NSCLC
SNB-78 CNS = system: SNB-78 CNS
XF 498 CNS = system: XF 498 CNS
RXF-631 renal = system: RXF-631 renal

| SMILES | TGI (MDA-N) | TGI (DLD-1 colon) | TGI (KM20L2 colon) | TGI (LXFL 529 NSCLC) | TGI (SNB-78 CNS) | TGI (XF 498 CNS) | TGI (RXF-631 renal) | GI50 (MDA-N) |
| --- | --- | --- | --- | --- | --- | --- | --- | --- |
| CC(=O)N1c2ccccc2C23CCN4CC5=CCOC(O)C(C5CC42)C13 (stereo not drawn) | > 100 µM | – | – | – | – | – | – | – |
| COC1OC(C)C(OC(=O)C(C)(C)C)C(C)(O)C1O (stereo not drawn) | – | > 100 µM | > 100 µM | > 100 µM | > 100 µM | > 100 µM | – | – |
| CC(=O)Nc1ccc(/C=c2\sc3nnc(/C=C/c4ccccc4)n3c2=O)cc1 | – | > 50 µM | > 50 µM | > 50 µM | > 50 µM | > 50 µM | > 50 µM | – |
| CSc1s[s+]c(SC)c1[O-] | – | 33.6 µM | > 100 µM | 38.7 µM | > 100 µM | > 100 µM | 41.8 µM | – |
| O=C1C=C(Br)C(=O)C(Br)=C1 | – | > 100 µM | > 100 µM | > 100 µM | > 100 µM | > 100 µM | > 100 µM | – |
| C=C(CO)CC(O)c1ccccc1 (stereo not drawn) | – | > 100 µM | > 100 µM | > 100 µM | > 100 µM | > 100 µM | > 100 µM | – |
| Cc1ccc(C(=O)/C=C/c2ccccc2Cl)cc1 | – | 36 µM | 30.9 µM | 28.7 µM | 46.8 µM | – | – | – |
| CN/N=C(\C)CC(=O)Nc1cccc(Cl)c1C | – | > 100 µM | > 100 µM | > 100 µM | > 100 µM | > 100 µM | > 100 µM | – |
| O=C1OC(c2ccc([N+](=O)[O-])cc2)=N/C1=C\c1ccc(O)cc1 | > 100 µM | – | – | – | – | – | – | – |
| NC(C(=O)O)C(N)C(=O)O (stereo not drawn) | > 100 µM | – | – | – | – | – | – | – |
| O=C(O)/C(O)=C1/C=C(c2ccccc2)c2ccccc21 | – | > 100 µM | 97.2 µM | 91.4 µM | > 100 µM | – | 86.3 µM | – |
| CC(C)OCN1COCN=C1NC#N | – | 57.6 µM | > 100 µM | > 100 µM | – | – | > 100 µM | – |
| Cc1oc2c(c1C(=O)c1ccccc1)C(=O)c1ccccc1C2=O | 3.9 µM | 10 µM | 31.9 µM | 3.1 µM | > 100 µM | 5.18 µM | > 100 µM | – |
| c1ccc(-c2cc(-c3cc(-c4ccccn4)[nH]n3)n[nH]2)nc1 | > 100 µM | – | – | – | – | – | – | – |
| Cc1cccc(NC(=O)CC2C(=O)Nc3ccccc3S2(=O)=O)c1C (stereo not drawn) | – | > 100 µM | > 100 µM | > 100 µM | 77.3 µM | – | – | – |
| Cc1ccccc1NC(=O)C(=O)Cc1nc2ccccc2s1 | – | > 100 µM | – | > 100 µM | > 100 µM | > 100 µM | > 100 µM | – |
| CC1CC2C3CC(F)C4=CC(=O)C=CC4(C)C3(F)C(O)CC2(C)C1(O)C(=O)CO (stereo not drawn) | – | > 100 µM | > 100 µM | – | > 100 µM | > 100 µM | > 100 µM | – |
| CN(C)CC1(C)CC/C(=C\c2ccc3c(c2)OCO3)C1=O (stereo not drawn) | – | > 100 µM | > 100 µM | > 100 µM | > 100 µM | > 100 µM | – | – |
| CCCCCN(CCCCC)C(=O)[C@@H](CCC(=O)OCc1ccccc1)NC(=O)c1cc2ccccc2[nH]1 | – | > 100 µM | > 100 µM | > 100 µM | > 100 µM | – | > 100 µM | – |
| CC1CC(=O)C(C(O)CC2CC(=O)N(c3ccccc3)C(=O)C2)C(C)C1 (stereo not drawn) | – | > 100 µM | > 100 µM | > 100 µM | > 100 µM | – | – | – |
| COCCN1C2=CCCCC2=Nc2c(N)nc(N)nc21 | – | > 100 µM | > 100 µM | > 100 µM | > 100 µM | > 100 µM | > 100 µM | – |

| SMILES | TGI (MDA-N) | TGI (DLD-1 colon) | TGI (KM20L2 colon) | TGI (LXFL 529 NSCLC) | TGI (SNB-78 CNS) | TGI (XF 498 CNS) | TGI (RXF-631 renal) | GI50 (MDA-N) |
| --- | --- | --- | --- | --- | --- | --- | --- | --- |
| COC(=O)C(C(=O)C(=O)Nc1ccccc1OC)c1csc(-n2nc(-c3ccccc3)cc2-c2ccccc2)n1 (stereo not drawn) | – | > 100 µM | > 100 µM | > 100 µM | > 100 µM | > 100 µM | > 100 µM | – |
| O=C(Nc1cc(C(F)(F)F)ccc1Cl)C(=O)C(C(=O)c1ccc2ccccc2c1)C1OC(=O)c2ccccc21 (stereo not drawn) | – | 36.3 µM | 39.1 µM | 20.5 µM | – | – | – | – |
| O=C(O)C1Cc2nc[nH]c2CN1 (stereo not drawn) | – | > 100 µM | > 100 µM | > 100 µM | > 100 µM | – | > 100 µM | – |
| N/C(=N\C(=S)N1CCCCC1)N1CCCCC1 | – | > 100 µM | > 100 µM | > 100 µM | > 100 µM | > 100 µM | – | – |
| CC(NC1CCC[C@H]1O)c1ccccc1 (mixture of isomers) | – | – | > 100 µM | – | > 100 µM | > 100 µM | – | – |
| C=C1CC2(OC1=O)c1ccccc1CCc1ccccc12 | 3.34 µM | 3.4 µM | 14.5 µM | 3.07 µM | 4.43 µM | 3.88 µM | – | – |
| CC1=COC2=C(C)C(=O)C(=O)c3c(C)ccc1c32 | 3.26 µM | – | – | – | – | – | – | – |
| Oc1cccc(C2SCc3nc4ccccc4n32)c1 (stereo not drawn) | – | > 100 µM | – | > 100 µM | > 100 µM | – | – | – |
| Nc1nc(N)c(-c2ccccc2)c(C(=O)Nc2ccc(Cl)c(Cl)c2)n1 | – | > 100 µM | > 100 µM | > 100 µM | > 100 µM | – | > 100 µM | – |
| C=CC1=C(C)C2=NC1=CC1=NC(=C(CC)/C1=C/O)C=C1C=C3C(=O)C(C(=O)OC)C(=C4NC(=C2)C(C)C4CCC(=O)OC/C=C(\C)CCCC(C)CCCC(C)CCCC(C)C)C3=N1 (stereo not drawn) (tested in a mixture with another compound) | > 100 µM | – | – | – | – | – | – | – |
| C=C(C)C1CC[C@]2(C(=O)O)CCC3(C)[C@H](CCC4[C@@]5(C)CC[C@H](OC6OC(CO)C(O)C6OC6OC(C)C(O)C(O)C6O)[C@@](C)(CO)C5CC[C@]43C)C12 (stereo partly drawn) | – | > 100 µM | > 100 µM | > 100 µM | > 100 µM | > 100 µM | > 100 µM | – |
| O=C1CCC(=O)c2cc(Br)ccc2N1 | – | > 100 µM | > 100 µM | > 100 µM | > 100 µM | > 100 µM | > 100 µM | – |
| Cc1ccc(NC(=O)SCCC(=O)O)cc1NC(=O)SCCC(=O)O | – | > 10 µM | > 100 µM | > 100 µM | > 100 µM | – | – | – |
| COc1cc(C2C(C(=O)O)=C(C)Oc3cc4c(cc32)OCO4)cc(OC)c1OC (stereo not drawn) | – | > 100 µM | > 100 µM | – | > 100 µM | 95.9 µM | > 100 µM | – |
| O=C=Nc1ccc(Cc2ccc(N=C=O)cc2)cc1 (tested in a mixture with another compound) | > 25 µg/mL | – | – | – | – | – | – | > 25 µg/mL |
| O=C1/C(=C\c2ccccc2)c2ccccc2N1Cc1ccccc1 | 13.4 µM | – | – | – | – | – | – | – |
| COC(=O)C1CCc2c(OC)ccc(OC)c2C1=O (stereo not drawn) | – | > 100 µM | > 100 µM | > 100 µM | > 100 µM | – | – | – |
| O=C1OC(=O)C2C3CCC(O3)C12 (stereo not drawn) | – | > 100 µM | – | > 100 µM | > 100 µM | > 100 µM | – | – |
| COc1ccc(/C=N/NC(=O)O)cc1 | > 100 µM | – | – | – | – | – | – | – |
| CC(NC(=O)C(N)Cc1ccccc1)C(=O)NC(Cc1ccc(O)cc1)C(=O)NC(Cc1c[nH]c2ccccc12)C(=O)NC(CCCCN)C(=O)NC(C(=O)NC(C)C(=O)NC(Cc1ccc2ccccc2c1)C(N)=O)C(C)C (stereo not drawn) (H-FAYWKVA[2Nal]-NH2; configuration not given here) | – | > 100 µM | 78 µM | – | > 100 µM | 54.9 µM | – | – |
